Two compounds from patent US7115640B2, “Heterocyclic modulators of nuclear receptors” (X-Ceptor Therapeutics, Inc., priority 2001, dated 2006) can be followed below.

Experiment [1] deals with T1, FXR (CMX-hFXR with CMX-RXRα in CV-1 cells) (Homo sapiens, UniProt Q96RI1).
T1 construct: expressed in transfected cells; host or cells: CV-1 African Green Monkey Kidney cells
T1 sequence (Q96RI1 1-472 isoform Q96RI1-2): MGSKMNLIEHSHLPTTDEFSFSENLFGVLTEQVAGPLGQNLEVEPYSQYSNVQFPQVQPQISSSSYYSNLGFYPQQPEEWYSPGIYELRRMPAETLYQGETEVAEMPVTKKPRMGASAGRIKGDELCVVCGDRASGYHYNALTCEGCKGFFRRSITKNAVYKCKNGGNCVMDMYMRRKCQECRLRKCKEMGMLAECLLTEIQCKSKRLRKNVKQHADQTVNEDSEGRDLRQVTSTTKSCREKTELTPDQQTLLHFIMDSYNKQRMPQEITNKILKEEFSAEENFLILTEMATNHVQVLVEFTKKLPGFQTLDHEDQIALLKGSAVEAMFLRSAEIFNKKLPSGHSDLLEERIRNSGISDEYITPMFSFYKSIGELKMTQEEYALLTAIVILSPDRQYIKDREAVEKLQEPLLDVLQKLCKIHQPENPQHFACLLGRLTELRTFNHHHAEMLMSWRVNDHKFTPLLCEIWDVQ
T1 sequence (P19793 1-462 partner): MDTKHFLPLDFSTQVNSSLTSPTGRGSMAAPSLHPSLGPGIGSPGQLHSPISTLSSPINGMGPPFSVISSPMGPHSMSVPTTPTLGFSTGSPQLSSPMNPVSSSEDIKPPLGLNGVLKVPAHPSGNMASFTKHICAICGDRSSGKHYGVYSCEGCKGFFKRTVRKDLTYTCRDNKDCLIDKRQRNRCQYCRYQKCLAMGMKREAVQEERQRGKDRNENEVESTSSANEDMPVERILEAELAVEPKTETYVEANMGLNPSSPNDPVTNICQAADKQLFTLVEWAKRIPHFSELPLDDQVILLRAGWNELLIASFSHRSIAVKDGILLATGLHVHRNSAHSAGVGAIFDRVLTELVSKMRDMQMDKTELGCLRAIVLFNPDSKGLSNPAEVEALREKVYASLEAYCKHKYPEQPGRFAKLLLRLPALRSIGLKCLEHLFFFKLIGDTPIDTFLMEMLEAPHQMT
Briefly: FXR/ECREx7 co-transfection assay (luciferase reporter). Format: cell-based. As to conditions: for EC50: FXR agonism. How it is done: The basic co-transfection protocol for measuring FXR activity is as follows. CV-1 African Green Monkey Kidney cells are plated 24 hours before transfection to achieve approximately 70–80 percent confluency. Cells are transfected with CMX-hFXR, CMX-RXRα, Luc12 reporter (ECREx7-Tk-Luciferase), and a CMX-β-Galactosidase expression vector. The transfection reagent used is DOTAP. Cells are incubated with the DOTAP/DNA mixture for 5 hours after which the cells are harvested and plated onto either 96 well or 384 well plates containing the appropriate concentration of test compound. The assay is allowed to continue for an additional 18–20 hours, after which the cells are lysed, and the luciferase activity is measured on a standard plate reader.
Both the FXR/ECREx7 co-transfection assay (Example 54) and the TR-FRET assay (Example 53) can be used to establish the EC50/IC50 values for potency and percent activity or inhibition for efficacy. Efficacy defines the activity of a compound relative to a high control (chenodeoxycholic acid, CDCA) or a low control (DMSO/vehicle). The dose response curves are generated from an 8 point curve with concentrations differing by ½ LOG units. Each point represents the average of 4 wells of data from a 384 well plate. The curve for the data is generated by using the equation: Y=Bottom+(Top−Bottom)/(1+10^((LogEC50−X)*HillSlope))
The EC50/IC50 is therefore defined as the concentration at which an agonist or antagonist elicits a response that is half way between the Top (maximum) and Bottom (baseline) values. The EC50/IC50 values represented are the averages of at least 3 independent experiments. The determination of the relative efficacy or % control for an agonist is by comparison to the maximum response achieved by chenodeoxycholic acid that is measured individually in each dose response experiment.
For the antagonist assay, 40 μM CDCA is added to each well of a 384 well plate to elicit a response. The % inhibition for each antagonist is therefore a measurement of the inhibition of the activity of 40 μM CDCA. In this example 100% inhibition would indicate that the activity of 40 μM CDCA has been reduced to baseline levels, defined as the activity of the assay in the presence of DMSO only.

The target in another experiment is T2, GST-FXR-LBD (Homo sapiens, UniProt Q96RI1).
T2 sequence (Q96RI1 244-472 isoform Q96RI1-2): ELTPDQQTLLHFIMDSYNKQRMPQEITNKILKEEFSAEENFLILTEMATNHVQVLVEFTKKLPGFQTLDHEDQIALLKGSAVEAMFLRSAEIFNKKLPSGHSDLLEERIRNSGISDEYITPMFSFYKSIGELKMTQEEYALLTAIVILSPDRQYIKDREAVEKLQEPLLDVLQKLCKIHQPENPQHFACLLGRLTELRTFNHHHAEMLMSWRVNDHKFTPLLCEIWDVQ
Briefly: Time resolved fluorescence resonance energy transfer (TR-FRET) coactivator recruitment assay. Format: biochemical. How it is done:
The FRET assay was performed by incubating 8 nM of GST-FXR-LBD, 8 nM of Europium-labeled anti-GST antibody (Wallac), 16 nM biotin-SRC-1 peptide [5′-biotin-[…]-CONH2], 20 nM APC-SA [allophycocyanin conjugated streptavidin] (Wallac) in FRET assay buffer (20 mM KH2PO4/K2HPO4 (pH 7.3), 150 mM NaCl, 2 mM CHAPS, 2 mM EDTA, 1 mM DTT) in the presence of the test compound(s) for 2–4 hours at room temperature. Data was collected using an LJL Analyst with readings at 615 nm and 665 nm.
Both the FXR/ECREx7 co-transfection assay (Example 54) and the TR-FRET assay (Example 53) can be used to establish the EC50/IC50 values for potency and percent activity or inhibition for efficacy. Efficacy defines the activity of a compound relative to a high control (chenodeoxycholic acid, CDCA) or a low control (DMSO/vehicle). The dose response curves are generated from an 8 point curve with concentrations differing by ½ LOG units. Each point represents the average of 4 wells of data from a 384 well plate. […]
The EC50/IC50 is therefore defined as the concentration at which an agonist or antagonist elicits a response that is half way between the Top (maximum) and Bottom (baseline) values. […] The determination of the relative efficacy or % control for an agonist is by comparison to the maximum response achieved by chenodeoxycholic acid that is measured individually in each dose response experiment. […]
In general terms: Time-resolved FRET reads energy transfer from a long-lived donor to a nearby acceptor.

By EC50 is commonly meant the concentration at which the effect is half-maximal. A lower EC50 goes with higher potency in that assay. One may read the IC50 as the concentration that inhibits the measured activity by half. The low end stands for greater potency in that assay, the high end for weaker potency in that assay.

Where two headings read alike, the source gives them in different places.

For the compound `CCNc1ccc(C#N)cc1N=C1SC(=C2SC(C)=C(c3ccccc3)N2C)C(=O)N1Cc1ccccc1` [Example 52, 3-(3′-benzyl-3,5-dimethyl-4′-oxo-4-phenyl-3′,4′-dihydro-3H-[2,5′]-bithiazolyliden-2′-ylideneamino)-4-(ethylamino)benzonitrile], in experiment [1] (CV-1, read-out: % efficacy), the Emax was approximately 32%. Besides, in experiment [1] (co-transfection assay), the concentration giving a half-maximal response (EC50) was approximately 56 nM. The same compound registered a 50% inhibitory concentration (IC50) against GST-FXR-LBD (FXR antagonism) of approximately 42 nM. For the same compound, the “% inhibition” value on GST-FXR-LBD (inhibition of the activity of 40 μM CDCA) is “about 48%”.

Consider `CCNc1ccc(C#N)cc1N=C1SC(=C2Sc3ccccc3N2C)C(=O)N1Cc1ccccc1` [Example 32, 3-[3-benzyl-5-(3-methyl-3H-benzothiazol-2-ylidene)-4-oxothiazolidin-2-ylideneamino]-4-(ethylamino)benzonitrile], for which the Emax in experiment [1] (CV-1, relative to maximum response of chenodeoxycholic acid (CDCA), co-transfection assay, read-out: % efficacy) is approximately 150%. Further, the half-maximal effective concentration (EC50) in experiment [1] (co-transfection assay) is approximately 10 nM.
